Results from PubChem BioAssay (NCI).
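GI50 is the concentration that inhibits growth by half. TGI marks complete inhibition of growth.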

Columns and labels:
Assay in all cases: NCI-60 cell line screen, 384-well format
TK-10 renal = system: TK-10 renal
A498 renal = system: A498 renal
MCF7 breast = system: MCF7 breast
SK-MEL-28 melanoma = system: SK-MEL-28 melanoma
NCI-H23 lung = system: NCI-H23 lung
HOP-92 NSCLC = system: HOP-92 NSCLC
NCI-H322M lung = system: NCI-H322M lung
SN12C renal = system: SN12C renal
MOLT-4 leukemia = system: MOLT-4 leukemia
SF-268 CNS = system: SF-268 CNS
OVCAR-3 ovarian = system: OVCAR-3 ovarian
HL-60(TB) leukemia = system: HL-60(TB) leukemia
MDA-MB-231 breast = system: MDA-MB-231 breast
HCT-116 colon = system: HCT-116 colon
MDA-MB-468 breast = system: MDA-MB-468 breast
IGROV1 ovarian = system: IGROV1 ovarian
HS 578T breast = system: HS 578T breast
U251 glioblastoma = system: U251 glioblastoma
A549 NSCLC = system: A549 NSCLC
CAKI-1 renal = system: CAKI-1 renal
UACC-62 melanoma = system: UACC-62 melanoma
COLO 205 colon = system: COLO 205 colon
NCI-H460 NSCLC = system: NCI-H460 NSCLC
UACC-257 melanoma = system: UACC-257 melanoma
SF-539 CNS = system: SF-539 CNS
HT29 colon = system: HT29 colon
MDA-MB-435 melanoma = system: MDA-MB-435 melanoma
MALME-3M melanoma = system: MALME-3M melanoma
SNB-75 CNS = system: SNB-75 CNS
HCT-15 colon = system: HCT-15 colon
RPMI-8226 leukemia = system: RPMI-8226 leukemia
NCI-H522 lung = system: NCI-H522 lung
OVCAR-5 ovarian = system: OVCAR-5 ovarian
786-0 renal = system: 786-0 renal
SNB-19 CNS = system: SNB-19 CNS
UO-31 renal = system: UO-31 renal
T-47D breast = system: T-47D breast
SW-620 colon = system: SW-620 colon
SK-MEL-5 melanoma = system: SK-MEL-5 melanoma
SK-OV-3 ovarian = system: SK-OV-3 ovarian
KM12 colon = system: KM12 colon
PC-3 prostate = system: PC-3 prostate
ACHN renal = system: ACHN renal
NCI-H226 lung = system: NCI-H226 lung
HOP-62 NSCLC = system: HOP-62 NSCLC
M14 melanoma = system: M14 melanoma
EKVX NSCLC = system: EKVX NSCLC
OVCAR-8 ovarian = system: OVCAR-8 ovarian
BT-549 breast = system: BT-549 breast
LOX IMVI melanoma = system: LOX IMVI melanoma
NCI/ADR-RES ovarian = system: NCI/ADR-RES ovarian
HCC-2998 colon = system: HCC-2998 colon
DU-145 prostate = system: DU-145 prostate
RXF 393 renal = system: RXF 393 renal

`C[C@]12CC[C@H](O)CC1=CC[C@@H]1[C@@H]2CC[C@]2(C)C(c3cccnc3)=CC[C@@H]12` showed a GI50 (TK-10 renal) greater than 100 µM, a TGI (TK-10 renal) greater than 100 µM and a GI50 (A498 renal) of 15.8 µM. It also gave a TGI (A498 renal) of 45.1 µM, a GI50 (MCF7 breast) greater than 100 µM and a TGI (MCF7 breast) greater than 100 µM. For the same molecule, the GI50 (SK-MEL-28 melanoma) was greater than 100 µM, the TGI (SK-MEL-28 melanoma) was greater than 100 µM and the GI50 (NCI-H23 lung) was greater than 100 µM. For the same molecule, the TGI (NCI-H23 lung) was greater than 100 µM, the GI50 (HOP-92 NSCLC) was 25.2 µM and the TGI (HOP-92 NSCLC) was greater than 100 µM. The GI50 (NCI-H322M lung) was greater than 100 µM, the TGI (NCI-H322M lung) was greater than 100 µM and the GI50 (SN12C renal) was greater than 100 µM. For the same molecule, the TGI (SN12C renal) was greater than 100 µM, the GI50 (MOLT-4 leukemia) was 2.99 µM and the TGI (MOLT-4 leukemia) was 25 µM. For the same molecule, the GI50 (SF-268 CNS) was greater than 100 µM, the TGI (SF-268 CNS) was greater than 100 µM and the GI50 (OVCAR-3 ovarian) was greater than 100 µM. It also gave a TGI (OVCAR-3 ovarian) greater than 100 µM, a GI50 (HL-60(TB) leukemia) of 4.06 µM and a TGI (HL-60(TB) leukemia) of 10.1 µM. It also gave a GI50 (MDA-MB-231 breast) greater than 100 µM, a TGI (MDA-MB-231 breast) greater than 100 µM and a GI50 (HCT-116 colon) of 57 µM. It also gave a TGI (HCT-116 colon) greater than 100 µM, a GI50 (MDA-MB-468 breast) of 5.46 µM and a TGI (MDA-MB-468 breast) greater than 100 µM. It also gave a GI50 (IGROV1 ovarian) of 60.4 µM, a TGI (IGROV1 ovarian) greater than 100 µM and a GI50 (HS 578T breast) of 9.52 µM. It also gave a TGI (HS 578T breast) of 49 µM, a GI50 (U251 glioblastoma) greater than 100 µM and a TGI (U251 glioblastoma) greater than 100 µM. For the same molecule, the GI50 (A549 NSCLC) was 63.9 µM, the TGI (A549 NSCLC) was greater than 100 µM and the GI50 (CAKI-1 renal) was 52.8 µM. The TGI (CAKI-1 renal) was greater than 100 µM, the GI50 (UACC-62 melanoma) was greater than 100 µM and the TGI (UACC-62 melanoma) was greater than 100 µM. For the same molecule, the GI50 (COLO 205 colon) was 42.1 µM, the TGI (COLO 205 colon) was greater than 100 µM and the GI50 (NCI-H460 NSCLC) was greater than 100 µM. For the same molecule, the TGI (NCI-H460 NSCLC) was greater than 100 µM, the GI50 (UACC-257 melanoma) was greater than 100 µM and the TGI (UACC-257 melanoma) was greater than 100 µM. For the same molecule, the GI50 (SF-539 CNS) was greater than 100 µM, the TGI (SF-539 CNS) was greater than 100 µM and the GI50 (HT29 colon) was 15.2 µM. For the same molecule, the TGI (HT29 colon) was 96.1 µM, the GI50 (MDA-MB-435 melanoma) was greater than 100 µM and the TGI (MDA-MB-435 melanoma) was greater than 100 µM. The GI50 (MALME-3M melanoma) was 3.99 µM, the TGI (MALME-3M melanoma) was 61.5 µM and the GI50 (SNB-75 CNS) was greater than 100 µM. For the same molecule, the TGI (SNB-75 CNS) was greater than 100 µM, the GI50 (HCT-15 colon) was 9.74 µM and the TGI (HCT-15 colon) was greater than 100 µM. The GI50 (RPMI-8226 leukemia) was 2.36 µM, the TGI (RPMI-8226 leukemia) was 4.65 µM and the GI50 (NCI-H522 lung) was greater than 100 µM. The TGI (NCI-H522 lung) was greater than 100 µM, the GI50 (OVCAR-5 ovarian) was greater than 100 µM and the TGI (OVCAR-5 ovarian) was greater than 100 µM. For the same molecule, the GI50 (786-0 renal) was 1.93 µM, the TGI (786-0 renal) was 3.88 µM and the GI50 (SNB-19 CNS) was greater than 100 µM. It also gave a TGI (SNB-19 CNS) greater than 100 µM, a GI50 (UO-31 renal) greater than 100 µM and a TGI (UO-31 renal) greater than 100 µM. For the same molecule, the GI50 (T-47D breast) was greater than 100 µM, the TGI (T-47D breast) was greater than 100 µM and the GI50 (SW-620 colon) was greater than 100 µM. It also gave a TGI (SW-620 colon) greater than 100 µM, a GI50 (SK-MEL-5 melanoma) greater than 100 µM and a TGI (SK-MEL-5 melanoma) greater than 100 µM. For the same molecule, the GI50 (SK-OV-3 ovarian) was greater than 100 µM, the TGI (SK-OV-3 ovarian) was greater than 100 µM and the GI50 (KM12 colon) was 38.3 µM. The TGI (KM12 colon) was greater than 100 µM, the GI50 (PC-3 prostate) was greater than 100 µM and the TGI (PC-3 prostate) was greater than 100 µM. For the same molecule, the GI50 (ACHN renal) was 22.9 µM, the TGI (ACHN renal) was greater than 100 µM and the GI50 (NCI-H226 lung) was 4.86 µM. It also gave a TGI (NCI-H226 lung) greater than 100 µM, a GI50 (HOP-62 NSCLC) of 20 µM and a TGI (HOP-62 NSCLC) greater than 100 µM. For the same molecule, the GI50 (M14 melanoma) was greater than 100 µM, the TGI (M14 melanoma) was greater than 100 µM and the GI50 (EKVX NSCLC) was 25.9 µM. The TGI (EKVX NSCLC) was greater than 100 µM, the GI50 (OVCAR-8 ovarian) was greater than 100 µM and the TGI (OVCAR-8 ovarian) was greater than 100 µM. The GI50 (BT-549 breast) was 9.12 µM, the TGI (BT-549 breast) was 69.7 µM and the GI50 (LOX IMVI melanoma) was 4.93 µM. The TGI (LOX IMVI melanoma) was greater than 100 µM, the GI50 (NCI/ADR-RES ovarian) was greater than 100 µM and the TGI (NCI/ADR-RES ovarian) was greater than 100 µM. For the same molecule, the GI50 (HCC-2998 colon) was greater than 100 µM, the TGI (HCC-2998 colon) was greater than 100 µM and the GI50 (DU-145 prostate) was greater than 100 µM. For the same molecule, the TGI (DU-145 prostate) was greater than 100 µM, the GI50 (RXF 393 renal) was 1.83 µM and the TGI (RXF 393 renal) was 4.72 µM.
